Test results: article PMC3253046 (Chinese Medicine, 2011)
Read-outs that look alike come from different tables or passages of the source.

Experiments:
[1] = Stability of the selected isoflavones in transport buffer (PBS+); type: physicochemical; conditions: three hours of incubation
Description: The transport buffer (PBS^+) used in the Caco-2 monolayer model was prepared as previously described. […]. For stability tests at 37°C, samples were taken at 0, 15, 40, 75, 120 and 180 minutes. At each time interval, 300 μl of isoflavone solution was taken and then acidified with 50 μl of 0.425% phosphoric acid. All experiments were conducted in triplicates. The amount of selected isoflavones remained in PBS^+ was determined with high-performance liquid chromatography (HPLC).

[2] = Bidirectional transport in the Caco-2 monolayer model; type: in vitro ADME, human; conditions: human
Description: (§1) The Caco-2 cells were cultured and seeded in the Transwell® inserts (24 mm, 0.4 μm pore size, 4.71 cm^2, polycarbonate filter) according to our previous study. Cells used for the current study were from passage 35-40. The transport experiments were carried out at 23-25 days after seeding. Upon removal of culture medium, the Transwells® were pre-equilibrated with PBS^+ at 37°C for 15 minutes. […] All Caco-2 transport studies were performed at least in triplicates. Procedure was similar to the A→B transport studies except for the donor side and the receiver side was reversed. […] Samples were taken from the receiver (apical) side at the same time points and at the end of the experiment from the donor (basolateral) side as mentioned for the A→B studies. The studies were also performed at least in triplicates. Samples obtained in the Caco-2 transport studies were acidified with 0.425% phosphoric acid at a sample to acid ratio of 150:25 (v/v). […] Waters 2695 separation modules and Waters 996 photodiode array detector were used in the HPLC analyses of the Caco-2 samples. A reversed-phase column (100 × 4.6 mm 5μ Apex ODS Symm, Jones Chromatography, USA) equipped with a guard column (7.5 × 4.6 mm 5μ Spherisorb® ODS-2 C18, Waters, USA]) was used for the analyses of all three isoflavones. In order to shorten sample-running time, three separated HPLC methods were used for each isoflavone. The apparent permeability coefficient, Papp (cm/s), was calculated as follows. Papp=dC∕dT×V/(A×Co) where dC/dT is the initial slope of the plot of cumulative isoflavone concentrations versus time; V is the volume of receiver chamber (ml); A is the apparent surface area of the monolayer; Co is the initial concentration in donor site (μmol/ml). In addition to Papp, the percentage of recovery was calculated for each transport study to determine the extent of absence of isoflavone, which may be due to cell uptake or metabolism of the selected isoflavones after passing through the Caco-2 cells. It was calculated as follows. Recovery%=Final amount (in μmole) of isoflavone in donor and receptor side∕Initial amount (in μmole) of isoflavone in donor side

Caco-2 monolayer = experiment: as above; type: in vitro ADME, human; conditions: for time at which detectable in receiver chambers: after being loaded, both directions
Description: as §1

[3] = Partition coefficients (octanol/aqueous); type: physicochemical; conditions: read-out: partition coefficient D (LogD, octanol/aqueous)
Description: The aqueous solution (10 ml) containing individual isoflavones was mixed with octanol (3 ml). The mixtures were equilibrated in tube rotator for 24 hours followed by sampling from the aqueous layers and determining concentrations of the isoflavones by HPLC. The test was performed in triplicates for each isoflavone. The partition coefficients (D) at both pH7.4 and pH 6.8 were obtained through the following equation:
LogD=log(isoflavoneoctanolphase∕isoflavoneaqueousphase)

MRP = experiment: Basolateral-to-apical transport in Caco-2 monolayer in the presence of MK571 (MRP inhibitor); type: in vitro ADME, human; conditions: for lowering of B→A cumulative concentration versus without MK571: MK571 50 μM
Description: Procedure was similar to the A→B transport studies except for the donor side and the receiver side was reversed. Loading solution (2.6 ml) was added into the basolateral side and 1.5 ml of the blank PBS^+ was added to the apical side. Samples were taken from the receiver (apical) side at the same time points and at the end of the experiment from the donor (basolateral) side as mentioned for the A→B studies. The studies were also performed at least in triplicates.
The study was performed only for isoflavones that had shown a favorable B→A transport in the bi-directional transport studies. […] To investigate the influence of MRP on the efflux transport of the selected isoflavones, we preloaded 1.5 ml of MK571 (50 μM) at apical side and 2.6 ml of MK571 (50 μM) at the basolateral side respectively. The B→A transport experiments of the selected isoflavones in the presence of MK571 (50 μM) in the both apical and basolateral chambers were then performed following the method described above. The studies were performed in triplicates.

[4] = Hydrolysis on incubation with rat intestinal microvilli preparations; type: in vitro ADME; conditions: 50 μM, 37°C, two hours, protein 0.43 mg/ml
Description: Male Sprague-Dawley rats, supplied by and bred at the Laboratory Animal Service Center at The Chinese University of Hong Kong, were housed in an air-conditioned room under a 12/12-hour light/dark cycle. The experiment was conducted after being approved by the Animal Ethics Committee of The Chinese University of Hong Kong.
Samples from the in vitro incubation studies were centrifuged at 16,000 × g (Eppendorf, Germany) for five minutes; 50 μl of the supernatant of the samples were obtained and injected into the HPLC for analysis. In order to monitor daidzin, puerarin and daidzein in a single run for the samples from the hydrolysis study, we modified the above HPLC method for simultaneous detection of the three compounds. The analytes were separated with an HPLC column (BDS reversed phase column, 25 cm × 4.6 mm id; 5 μm particle size, Thermo Hypersil, UK) and eluted by the linear gradient elution at a flow rate of 1 ml/min. The gradient started with 95% of water with 0.01% aqueous acetic acid (A) and 5% of ACN containing 0.01% acetic acid (B), changed linearly to 83% A and 17% B in 30 minutes; 70% A and 30% B in 30-40 minutes; 50% A and 50% B in 40-45 minutes; and then back to the initial composition in 15 minutes followed by ten minutes after equilibrium.

[5] = both directional transport studies
[6] = Caco-2, pH 6.8, Caco-2, pH6.8, mean ± SD (n = 3), read-out: Recovery Apical to basolateral
[7] = Caco-2, pH 6.8, Caco-2, pH6.8, mean ± SD (n = 3), read-out: Recovery Basolateral to apical

Row | Compound | isoflavone remained in PBS+ ([1]; pH6.8, 37°C) [%] | isoflavone remained in PBS+ ([1]; pH7.4, 37°C) [%] | recovery ([2]; Caco-2, pH 6.8, Recovery Apical to basolateral) [%] | recovery ([2]; Caco-2, pH 6.8, Recovery Basolateral to apical) [%] | time at which detectable in receiver chambers (Caco-2 monolayer) | percentage of recoveries (Caco-2 monolayer; [5]) | logD at 24 h ([3]; pH 6.8, 24 hours equilibration) | logD at 24 h ([3]; pH 7.4, pH7.4, 24 hours equilibration) | recovery [2, 6] [%] | recovery [2, 7] [%] | Papp B→A ([2]; pH 6.8, Caco-2, pH6.8, mean ± SD (n = 3), read-out: Papp Basolateral to apical) [nm/s] | time from which detectable in the receiver chamber (MRP; B→A, in the presence of MK571 50 μM) [min] | lowering of B→A cumulative concentration versus without MK571 (MRP; at 180 minutes) [%] | cumulative concentration in the receiver chamber (B→A) (MRP; at 180 minutes, MK571 50 μM in both chambers) [µM] | lowering of B→A cumulative concentration versus without MK571 (MRP; at 180 minutes, listed as daidzin) | recovery at 180 min (MRP; human, Caco-2, B→A transport in the absence and presence of MK571, read-out: percentages of recovery) [%] | hydrolysis by rat intestinal microvilli preparations [4] | cumulative concentration in the receiver side (Caco-2 monolayer; at 180 minutes after apical loading) [µM] | cumulative concentration in the receiver side (Caco-2 monolayer; at 180 minutes after basal loading) [µM] | fraction permeable through the Caco-2 monolayer (Caco-2 monolayer; [5])
1 | O=c1c(-c2ccc(O)cc2)coc2cc(O)ccc12 [Daidzein, daidzein] | 95.50 ± 0.84 | 97.73 ± 3.43 | 83.1 ± 5.74 | 84 ± 14.1 | 15 min | about 83% | – | – | – | – | – | – | – | – | – | – | – | – | – | –
2 | O=c1c(-c2ccc(O)cc2)coc2cc(O[C@@H]3O[C@H](CO)[C@@H](O)[C@H](O)[C@H]3O)ccc12 [Daidzin, daidzin] | 108.66 ± 2.16 | 108.11 ± 5.21 | – | – | – | – | 0.34 ± 0.03 | 0.8 ± 0.03 | 92.9 ± 1.77 | 99.2 ± 2.55 | 5.3 | 90 | 50 | 0.41 ± 0.02 | about 50% | > 90 | completely hydrolyzed to daidzein | – | – | –
3 | O=c1c(-c2ccc(O)cc2)coc2c([C@@H]3O[C@H](CO)[C@@H](O)[C@H](O)[C@H]3O)c(O)ccc12 [Puerarin, puerarin] | 105.00 ± 2.72 | 106.74 ± 4.20 | – | – | not being detectable until two hours | – | – | – | 88.9 ± 7.03 | 92.7 ± 8.09 | – | – | – | – | – | – | majority of puerarin remained unchanged | 0.043 ± 0.006 | 0.12 ± 0.02 | around 0.3%
